What is called IC50 is the concentration that gives 50% inhibition.

The structures appear in SMILES notation.

The source of these data is ChEMBL document CHEMBL1127586, “Central cholinergic agents. 6. Synthesis and evaluation of 3-[1-(phenylmethyl)-4-piperidinyl]-1-(2,3,4,5-tetrahydro-1H-1-benzazepi n-8-yl)-1-propanones and their analogs as central selective acetylcholinesterase inhibitors” (J Med Chem, 1994).

In the first assay the target is T1, Acetylcholinesterase (Rattus norvegicus, UniProt P37136).
T1 sequence (P37136 whole entry): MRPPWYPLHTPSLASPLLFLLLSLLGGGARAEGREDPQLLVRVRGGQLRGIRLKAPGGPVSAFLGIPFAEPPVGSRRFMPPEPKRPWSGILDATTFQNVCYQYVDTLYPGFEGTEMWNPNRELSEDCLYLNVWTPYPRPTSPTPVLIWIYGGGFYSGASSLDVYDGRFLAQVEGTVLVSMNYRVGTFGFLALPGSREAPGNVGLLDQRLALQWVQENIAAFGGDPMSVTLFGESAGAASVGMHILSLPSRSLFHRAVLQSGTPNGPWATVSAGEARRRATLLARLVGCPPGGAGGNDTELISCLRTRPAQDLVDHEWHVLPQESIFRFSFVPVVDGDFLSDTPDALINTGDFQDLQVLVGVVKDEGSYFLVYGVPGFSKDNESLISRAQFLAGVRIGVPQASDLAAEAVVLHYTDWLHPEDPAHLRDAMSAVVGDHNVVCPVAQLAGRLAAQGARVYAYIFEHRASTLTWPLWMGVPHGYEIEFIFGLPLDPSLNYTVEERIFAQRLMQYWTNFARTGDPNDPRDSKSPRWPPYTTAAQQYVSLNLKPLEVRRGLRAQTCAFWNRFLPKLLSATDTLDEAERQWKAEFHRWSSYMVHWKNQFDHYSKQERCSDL
Conditions: not given
Take `O=C(CCC1CCN(Cc2cccc(Cl)c2)CC1)c1ccc2c(c1)CCCN2Cc1ccccc1`: the IC50 is 0.164 µM. For `COc1cccc(CN2CCC(CCC(=O)c3ccc4c(c3)CCN4)CC2)c1`, the IC50 came out at 2.68 µM. Molecule `CCN1CCCCc2ccc(C(=O)CCC3CCN(Cc4ccccc4)CC3)cc21` came in with a concentration for half-maximal inhibition (IC50) of 0.376 µM. Compared with the last molecule, the IC50 is about 7.1-fold lower. Take `O=C(CCC1CCN(Cc2ccccc2)CC1)c1ccc2c(c1)N(Cc1ccccc1)CCC2`: the IC50 turned out to be 1.49 µM.

On to `O=C(CCC1CCN(Cc2ccc(Cl)cc2)CC1)c1ccc2c(c1)CCN2`, for which the midpoint of inhibition, the IC50, lay at 6.36 µM.

Consider `O=C(CCC1CCN(Cc2ccccc2Cl)CC1)c1ccc2c(c1)CCN2`, for which the IC50 was found to be 0.076 µM. As for `COc1ccccc1CN1CCC(CCC(=O)c2ccc3c(c2)NCCCC3)CC1`, the IC50 is 2.62 µM. This IC50 is about 34-fold higher than that of the molecule before. On the same count and under the same terms, to `COc1ccccc1CN1CCC(CCC(=O)c2ccc3c(c2)CCN3)CC1` belongs 0.812 µM; to `O=C(CCC1CCN(Cc2ccccc2)CC1)c1ccc2c(c1)N(Cc1ccccc1)CC2`, 0.853 µM. Same read-out and setting: to `O=C(CCC1CCN(Cc2cccc(Cl)c2)CC1)c1ccc2c(c1)NCCCC2` belongs 0.333 µM; to `O=C(CCC1CCN(Cc2cccc([N+](=O)[O-])c2)CC1)c1ccc2c(c1)NCCCC2`, 0.39 µM; to `O=C(CCC1CCN(Cc2ccc(F)cc2)CC1)c1ccc2c(c1)NCCCC2`, 0.393 µM.

Consider `COc1cccc(CN2CCC(CCC(=O)c3ccc4c(c3)NCCCC4)CC2)c1`, for which the IC50 stood at 0.847 µM. `O=C(CCC1CCN(Cc2cccc(Cl)c2)CC1)c1ccc2c(c1)CCN2`: half-maximal inhibition (IC50) was put at 0.059 µM.

`CCCN1CCCCc2ccc(C(=O)CCC3CCN(Cc4ccccc4)CC3)cc21` gave an IC50 of 1.33 µM. The same measure, in the same setting: to `O=C(CCC1CCN(Cc2ccccc2)CC1)c1ccc2c(c1)N(Cc1ccccc1)CCCC2` belongs 3.14 µM.

The species entered for the next assay is Rattus norvegicus. The conditions noted are these: dose 10 mg/kg; route oral.
Description: Number of circlings observed for 30 min at 10 mg/kg orally administered dose in rats
`O=C(CCC1CCN(Cc2cccc(Cl)c2)CC1)c1ccc2c(c1)CCCN2Cc1ccccc1` showed a No. of circlings of 88. `O=C(CCC1CCN(Cc2ccccc2Cl)CC1)c1ccc2c(c1)CCN2` yielded a No. of circlings of 67.5. On the same count and under the same terms, to `CCCN1CCc2cc(C(=O)CCC3CCN(Cc4ccccc4)CC3)ccc21` belongs 81. On the same count and under the same terms, in the case of `O=C(CCC1CCN(Cc2cccc([N+](=O)[O-])c2)CC1)c1ccc2c(c1)CCN2` it was 91.1; in that of `O=C(CCC1CCN(Cc2cccc(Cl)c2)CC1)c1ccc2c(c1)CCN2`, 94.9.

For a further assay, the system named is Rattus norvegicus. Nature of the assay: Number of circlings observed for 30 min at 1 mg/kg orally administered dose in rats. Type of assay: functional. As to conditions: route oral.
Molecule `O=C(CCC1CCN(Cc2ccccc2)CC1)c1ccc2c(c1)NCC2` registered a No. of circlings of 107.9.
